According to patent publication US11970498B2, “CDK2 inhibitors” (BLUEPRINT MEDICINES CORPORATION, priority 2021, dated 2024):

Experiments:
[1] = molecular target: CDK2/Cyclin E (Homo sapiens, UniProt P24941); assay: CDK2/Cyclin E biochemical phosphorylation assay (Caliper mobility shift); details: apparent IC50; 1.0 mM ATP or ATP Km; 1.25 nM enzyme; 25° C.; read-out: CDK2/cyclin E1 IC50
Summary of the method: (§1)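 Caliper electrophoretic separation of substrate and phosphopeptide gave apparent IC50s. Enzymes: CDK1/Cyclin B1 GST-tag 1.5 nM, CDK2/Cyclin E 1.25 nM; ATP 1.0 mM or at Km; 7.5 µM FL-peptide; pH 7.5 HEPES buffer, 1% DMSO; room temperature until 10–20% phosphorylated, then EDTA quench.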

[2] = molecular target: T1, CDK1/Cyclin B1, GST-tag (Homo sapiens, UniProt P06493); assay: CDK1/Cyclin B1 biochemical phosphorylation assay (Caliper mobility shift); details: apparent IC50; 1.0 mM ATP or ATP Km; 1.5 nM enzyme; 25° C.
T1 construct: GST
T1 sequence (P06493 whole entry): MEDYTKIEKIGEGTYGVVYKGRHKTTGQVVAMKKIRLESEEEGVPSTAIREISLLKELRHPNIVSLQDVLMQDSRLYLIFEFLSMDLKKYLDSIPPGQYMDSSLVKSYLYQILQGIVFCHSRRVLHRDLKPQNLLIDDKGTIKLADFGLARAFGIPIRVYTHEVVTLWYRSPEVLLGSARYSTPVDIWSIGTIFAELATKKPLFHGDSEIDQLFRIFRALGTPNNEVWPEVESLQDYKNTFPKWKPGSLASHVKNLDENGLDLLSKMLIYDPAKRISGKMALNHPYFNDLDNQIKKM
T1 sequence (P14635 whole entry partner): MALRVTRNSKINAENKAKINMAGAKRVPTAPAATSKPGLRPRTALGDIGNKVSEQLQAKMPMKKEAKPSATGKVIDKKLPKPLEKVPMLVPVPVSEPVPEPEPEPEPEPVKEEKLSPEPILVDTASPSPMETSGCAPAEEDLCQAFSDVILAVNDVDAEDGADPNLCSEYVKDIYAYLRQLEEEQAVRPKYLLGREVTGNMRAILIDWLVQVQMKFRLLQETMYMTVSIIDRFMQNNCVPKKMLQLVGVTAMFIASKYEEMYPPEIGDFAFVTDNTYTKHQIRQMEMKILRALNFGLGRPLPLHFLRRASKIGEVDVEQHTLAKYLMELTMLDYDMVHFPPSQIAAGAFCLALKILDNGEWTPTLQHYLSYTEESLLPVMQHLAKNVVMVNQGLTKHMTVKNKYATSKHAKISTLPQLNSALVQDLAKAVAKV
Summary of the method: as §1

## FC(F)Oc1cc(Nc2cnc3cnn(CCc4ccncc4)c3n2)n[nH]1 [Example 130, N-(5-(difluoromethoxy)-1H-pyrazol-3-yl)-1-(2-(pyridin-4-yl)ethyl)-1H-pyrazolo[3,4-b]pyrazin-6-amine]
[1]
  IC50: ≤ 0.01 µM
[2]
  IC50: 0.1 to 0.5 µM

## Cn1cncc1Cn1ncc2ncc(Nc3cc(OC(F)F)[nH]n3)nc21 [Example 131, N-(5-(difluoromethoxy)-1H-pyrazol-3-yl)-1-((1-methyl-1H-imidazol-5-yl)methyl)-1H-pyrazolo[3,4-b]pyrazin-6-amine]
[1]
  IC50: 0.03 to 0.1 µM
[2]
  IC50: ≥ 0.5 µM

## N#CCC1(Cn2ncc3ncc(Nc4cc(OC(F)F)[nH]n4)nc32)CC1 [Example 132, 2-(1-((6-((5-(difluoromethoxy)-1H-pyrazol-3-yl)amino)-1H-pyrazolo[3,4-b]pyrazin-1-yl)methyl)cyclopropyl)acetonitrile]
[1]
  IC50: 0.03 to 0.1 µM
[2]
  IC50: ≥ 0.5 µM

## COc1cc(Nc2cnc3cnn(CC4(C)COC4)c3n2)n[nH]1 [Example 133, N-(5-methoxy-1H-pyrazol-3-yl)-1-((3-methyloxetan-3-yl)methyl)-1H-pyrazolo[3,4-b]pyrazin-6-amine]
[1]
  IC50: 0.02 to 0.03 µM
[2]
  IC50: ≥ 0.5 µM

## FC(F)Oc1cc(Nc2cnc3cnn(Cc4ccno4)c3n2)n[nH]1 [Example 134, N-(5-(difluoromethoxy)-1H-pyrazol-3-yl)-1-(isoxazol-5-ylmethyl)-1H-pyrazolo[3,4-b]pyrazin-6-amine]
[1]
  IC50: 0.01 to 0.02 µM
[2]
  IC50: ≥ 0.5 µM

## COc1cc(Nc2cnc3cnn(Cc4cccnc4)c3n2)n[nH]1 [Example 135, N-(5-methoxy-1H-pyrazol-3-yl)-1-(pyridin-3-ylmethyl)-1H-pyrazolo[3,4-b]pyrazin-6-amine]
[1]
  IC50: 0.01 to 0.02 µM
[2]
  IC50: ≥ 0.5 µM

## COc1cc(Nc2cnc3cnn(CC45CCC(CC4)OC5)c3n2)n[nH]1 [Example 136, 1-((2-oxabicyclo[2.2.2]octan-4-yl)methyl)-N-(5-methoxy-1H-pyrazol-3-yl)-1H-pyrazolo[3,4-b]pyrazin-6-amine]
[1]
  IC50: 0.01 to 0.02 µM
[2]
  IC50: ≥ 0.5 µM

## COc1cc(Nc2cnc3cnn(Cc4cccnc4F)c3n2)n[nH]1 [Example 137, 1-((2-fluoropyridin-3-yl)methyl)-N-(5-methoxy-1H-pyrazol-3-yl)-1H-pyrazolo[3,4-b]pyrazin-6-amine]
[1]
  IC50: ≤ 0.01 µM
[2]
  IC50: 0.1 to 0.5 µM

## COc1cc(Nc2cnc3cnn(CC4C5COCC54)c3n2)n[nH]1 (centres unmarked) [Example 138, 1-((3-oxabicyclo[3.1.0]hexan-6-yl)methyl)-N-(5-methoxy-1H-pyrazol-3-yl)-1H-pyrazolo[3,4-b]pyrazin-6-amine]
[1]
  IC50: 0.02 to 0.03 µM
[2]
  IC50: ≥ 0.5 µM

## COc1cc(Nc2cnc3cnn(C[C@@H]4CCCOC4)c3n2)n[nH]1 [Example 139, (S)-N-(5-methoxy-1H-pyrazol-3-yl)-1-((tetrahydro-2H-pyran-3-yl)methyl)-1H-pyrazolo[3,4-b]pyrazin-6-amine]
[1]
  IC50: 0.01 to 0.02 µM
[2]
  IC50: ≥ 0.5 µM

## COc1cc(Nc2cnc3cnn(C[C@H]4CCCOC4)c3n2)n[nH]1 [Example 140, (R)-N-(5-methoxy-1H-pyrazol-3-yl)-1-((tetrahydro-2H-pyran-3-yl)methyl)-1H-pyrazolo[3,4-b]pyrazin-6-amine]
[1]
  IC50: 0.01 to 0.02 µM
[2]
  IC50: ≥ 0.5 µM

## C[C@@H](CO)Cn1ncc2ncc(Nc3cc(OC(F)F)[nH]n3)nc21 [Example 198, (R)-3-(6-((5-(difluoromethoxy)-1H-pyrazol-3-yl)amino)-1H-pyrazolo[3,4-b]pyrazin-1-yl)-2-methylpropan-1-ol]
[1]
  IC50: 0.03 to 0.1 µM
[2]
  IC50: ≥ 0.5 µM

## C[C@H](CO)Cn1ncc2ncc(Nc3cc(OC(F)F)[nH]n3)nc21 [Example 199, (S)-3-(6-((5-(difluoromethoxy)-1H-pyrazol-3-yl)amino)-1H-pyrazolo[3,4-b]pyrazin-1-yl)-2-methylpropan-1-ol]
[1]
  IC50: 0.03 to 0.1 µM
[2]
  IC50: ≥ 0.5 µM

## FC(F)Oc1cc(Nc2cnc3cnn(C[C@H]4CCCNC4)c3n2)n[nH]1 [Example 200, (S)—N-(5-(difluoromethoxy)-1H-pyrazol-3-yl)-1-(piperidin-3-ylmethyl)-1H-pyrazolo[3,4-b]pyrazin-6-amine]
[1]
  IC50: 0.02 to 0.03 µM
[2]
  IC50: ≥ 0.5 µM

## OC[C@@H](c1ccccc1)n1ncc2ncc(Nc3cc(OC(F)F)[nH]n3)nc21 [Example 203, (R)-2-(6-((5-(difluoromethoxy)-1H-pyrazol-3-yl)amino)-1H-pyrazolo[3,4-b]pyrazin-1-yl)-2-phenylethan-1-ol]
[1]
  IC50: 0.03 to 0.1 µM
[2]
  IC50: ≥ 0.5 µM

## OC[C@@H](c1cccnc1)n1ncc2ncc(Nc3cc(OC(F)F)[nH]n3)nc21 [Example 204, (R)-2-(6-((5-(difluoromethoxy)-1H-pyrazol-3-yl)amino)-1H-pyrazolo[3,4-b]pyrazin-1-yl)-2-(pyridin-3-yl)ethan-1-ol]
[1]
  IC50: 0.02 to 0.03 µM
[2]
  IC50: ≥ 0.5 µM

## OCC1CC(n2ncc3ncc(Nc4cc(OC(F)F)[nH]n4)nc32)C1 (centres unmarked) [Example 219, (3-(6-((5-(difluoromethoxy)-1H-pyrazol-3-yl)amino)-1H-pyrazolo [3,4-b]pyrazin-1-yl)cyclobutyl)methanol]
[1]
  IC50: 0.02 to 0.03 µM
[2]
  IC50: ≥ 0.5 µM

## O[C@H]1C[C@H](Cn2ncc3ncc(Nc4cc(OC(F)F)[nH]n4)nc32)C1 [Example 220, (1r,3r)-3-((6-((5-(difluoromethoxy)-1H-pyrazol-3-yl)amino)-1H-pyrazolo[3,4-b]pyrazin-1-yl)methyl)cyclobutan-1-ol]
[1]
  IC50: 0.03 to 0.1 µM
[2]
  IC50: ≥ 0.5 µM

## FC(F)Oc1cc(Nc2cnc3cnn(CC45COCC4C5)c3n2)n[nH]1 (centres unmarked) [Example 221, 1-(3-oxabicyclo[3.1.0]hexan-1-ylmethyl)-N-(5-(difluoromethoxy)-1H-pyrazol-3-yl)-1H-pyrazolo[3,4-b]pyrazin-6-amine]
[1]
  IC50: 0.03 to 0.1 µM
[2]
  IC50: ≥ 0.5 µM

## FC(F)Oc1cc(Nc2cnc3cnn(Cc4cccnn4)c3n2)n[nH]1 [Example 222, N-(5-(difluoromethoxy)-1H-pyrazol-3-yl)-1-(pyridazin-3-ylmethyl)-1H-pyrazolo[3,4-b]pyrazin-6-amine]
[1]
  IC50: ≤ 0.01 µM
[2]
  IC50: ≥ 0.5 µM

## FC(F)Oc1cc(Nc2cnc3cnn(Cc4cnccn4)c3n2)n[nH]1 [Example 223, N-(5-(difluoromethoxy)-1H-pyrazol-3-yl)-1-(pyrazin-2-ylmethyl)-1H-pyrazolo[3,4-b]pyrazin-6-amine]
[1]
  IC50: 0.02 to 0.03 µM
[2]
  IC50: ≥ 0.5 µM

## [2H]C([2H])(c1cccnc1)n1ncc2ncc(Nc3cc(OC(F)F)[nH]n3)nc21 [Example 224, N-(5-(difluoromethoxy)-1H-pyrazol-3-yl)-1-(pyridin-3-ylmethyl-d2)-1H-pyrazolo[3,4-b]pyrazin-6-amine]
[1]
  IC50: ≤ 0.01 µM
[2]
  IC50: ≥ 0.5 µM

## [2H]C([2H])(C)n1ncc2ncc(Nc3cc(OC(F)F)[nH]n3)nc21 [Example 225, N-(5-(difluoromethoxy)-1H-pyrazol-3-yl)-1-(ethyl-1,1-d2)-1H-pyrazolo[3,4-b]pyrazin-6-amine]
[1]
  IC50: 0.03 to 0.1 µM
[2]
  IC50: ≥ 0.5 µM

## [2H]C([2H])(C1CCOCC1)n1ncc2ncc(Nc3cc(OC(F)F)[nH]n3)nc21 [Example 226, N-(5-(difluoromethoxy)-1H-pyrazol-3-yl)-1-((tetrahydro-2H-pyran-4-yl)methyl-d2)-1H-pyrazolo[3,4-b]pyrazin-6-amine]
[1]
  IC50: ≤ 0.01 µM
[2]
  IC50: 0.1 to 0.5 µM

## [2H]C([2H])([2H])Oc1cc(Nc2cnc3cnn(Cc4cccnc4)c3n2)n[nH]1 [Example 227, N-(5-(methoxy-d3)-1H-pyrazol-3-yl)-1-(pyridin-3-ylmethyl)-1H-pyrazolo[3,4-b]pyrazin-6-amine]
[1]
  IC50: 0.01 to 0.02 µM
[2]
  IC50: ≥ 0.5 µM
